{
  "source": "patent US20190021989A1",
  "about": "“GALENIC FORMULATION COMPRISING A TOPICAL DRUG” (NOVARTIS AG, priority 2015, published 2019)",
  "target": "T1, TLR7 (Homo sapiens, UniProt Q9NYK1)",
  "T1 sequence (Q9NYK1 27-1049)": "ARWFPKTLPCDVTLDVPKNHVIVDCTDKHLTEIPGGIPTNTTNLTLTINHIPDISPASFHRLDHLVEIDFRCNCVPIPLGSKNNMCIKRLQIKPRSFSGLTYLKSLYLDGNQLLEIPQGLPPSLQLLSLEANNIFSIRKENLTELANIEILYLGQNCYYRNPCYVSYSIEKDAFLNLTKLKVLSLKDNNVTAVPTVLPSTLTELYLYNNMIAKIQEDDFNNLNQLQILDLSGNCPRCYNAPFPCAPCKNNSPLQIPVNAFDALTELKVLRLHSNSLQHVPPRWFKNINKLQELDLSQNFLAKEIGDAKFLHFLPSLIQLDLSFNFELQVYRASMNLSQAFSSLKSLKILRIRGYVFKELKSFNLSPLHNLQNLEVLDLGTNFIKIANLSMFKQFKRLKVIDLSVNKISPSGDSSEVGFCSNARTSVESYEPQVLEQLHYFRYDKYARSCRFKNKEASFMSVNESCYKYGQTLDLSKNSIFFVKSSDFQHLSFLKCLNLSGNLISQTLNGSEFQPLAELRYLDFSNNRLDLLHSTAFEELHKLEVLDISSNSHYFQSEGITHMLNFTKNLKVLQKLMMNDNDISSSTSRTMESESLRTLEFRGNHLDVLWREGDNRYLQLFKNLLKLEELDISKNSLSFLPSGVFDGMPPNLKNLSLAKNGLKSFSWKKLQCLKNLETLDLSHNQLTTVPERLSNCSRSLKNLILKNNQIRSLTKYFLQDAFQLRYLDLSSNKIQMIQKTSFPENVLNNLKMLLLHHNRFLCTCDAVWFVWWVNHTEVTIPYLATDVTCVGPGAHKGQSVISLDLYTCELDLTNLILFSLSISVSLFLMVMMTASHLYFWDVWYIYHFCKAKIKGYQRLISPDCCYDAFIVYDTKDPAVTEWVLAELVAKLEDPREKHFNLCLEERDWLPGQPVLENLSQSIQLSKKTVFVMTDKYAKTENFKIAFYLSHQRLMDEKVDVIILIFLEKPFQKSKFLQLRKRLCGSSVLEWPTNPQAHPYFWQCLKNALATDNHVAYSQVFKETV",
  "assay": "TLR7 agonist potency compared with Aldara",
  "details": "more potent than Aldara",
  "data": [
    {"smiles": "Cc1ccc2c(c1)nc(N)c1ncc(CCc3ccc(OCCC(C)C)cc3C)cc12", "note": "[compound of formula (II)]", "values": [
      {"measurement": "TLR7 agonist potency relative to Aldara", "value": "about 100 times"}
    ]}
  ]
}
